The results in this text go back to BindingDB's records for doi:10.1016/j.bioorg.2016.11.007 (University of Karachi, 2017).

Assay [1] deals with T1, Thymidine phosphorylase (Escherichia coli (strain K12), UniProt P07650). Briefly: Thymidine Phosphorylase Inhibition Assay. The settings on record: 30 °C. How it is done: TP inhibition assay was performed spectrophotometrically in 96-well plate. […] The total reaction volume was 200 μL. 20 μL of TP enzyme (0.058 unit/well) was incubated with 10 μL of test compounds (0.5 mM) for 10 min at 30 C. […] Every experiment was run in triplicate.
T1 sequence (P07650 whole entry): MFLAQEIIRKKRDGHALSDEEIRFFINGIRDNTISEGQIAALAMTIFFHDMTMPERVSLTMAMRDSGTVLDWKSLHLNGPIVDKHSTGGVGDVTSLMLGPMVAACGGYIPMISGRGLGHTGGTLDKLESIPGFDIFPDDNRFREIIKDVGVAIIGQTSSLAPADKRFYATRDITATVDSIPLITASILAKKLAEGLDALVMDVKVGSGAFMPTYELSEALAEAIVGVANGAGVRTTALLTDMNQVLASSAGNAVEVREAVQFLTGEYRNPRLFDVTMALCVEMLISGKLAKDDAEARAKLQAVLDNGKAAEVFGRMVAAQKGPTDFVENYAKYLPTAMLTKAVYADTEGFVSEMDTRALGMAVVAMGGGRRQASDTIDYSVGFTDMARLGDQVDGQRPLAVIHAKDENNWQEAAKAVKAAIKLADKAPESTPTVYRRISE

Assay [2] has as its target T1, Thymidine phosphorylase. As to the kind of experiment: Kinetic Assay. As to conditions: 30 °C.

As a reminder, the IC50 is the concentration at which inhibition is half-maximal. A high value points to lower potency. `Cc1cn([C@H]2C[C@H](OC(=O)c3ccc(Cl)cc3Cl)[C@@H](COC(=O)c3ccc(Cl)cc3Cl)O2)c(=O)[nH]c1=O` [5'-O-(2'',4''-Dichlorobenzoyl)-thymidine-3'-O-2'',4''-dichlorobenzoate (13)]: inhibition on Thymidine phosphorylase [1] was half-maximal at 146 µM (IC50). Still for that read-out and setting: in the case of `COc1ccccc1C(=O)OC[C@H]1O[C@@H](n2cc(C)c(=O)[nH]c2=O)C[C@@H]1O` [5'-O-(2''-Methoxybenzoyl)-thymidine (11)] it was 90 µM. A word on the Ki: it is the dissociation constant of the complex between target and ligand, obtained from inhibition or displacement. The low end stands for tighter binding, the high end for weaker binding. On Thymidine phosphorylase [1], `Cc1cn([C@H]2C[C@H](O)[C@@H](COC(=O)c3cccc(Br)c3)O2)c(=O)[nH]c1=O` [5'-O-(3''-Bromobenzoyl)-thymidine (15)] showed a concentration for half-maximal inhibition (IC50) of 33.3 µM. The same compound yielded an inhibitory constant (Ki) on Thymidine phosphorylase [2] of 11.4 µM. For `Cc1cn([C@H]2C[C@H](OC(=O)c3ccc(Br)cc3)[C@@H](COC(=O)c3ccc(Br)cc3)O2)c(=O)[nH]c1=O` [5'-O-(4''-Bromobenzoyl)-thymidine-3'-O-4''-bromobenzoate (14)], the IC50 at Thymidine phosphorylase [1] is 7.5 µM. For the same compound, at Thymidine phosphorylase [2], the inhibitory constant (Ki) was determined as 7.81 µM. On to `COc1ccc(C(=O)OC[C@H]2O[C@@H](n3cc(C)c(=O)[nH]c3=O)C[C@@H]2O)cc1` [5'-O-(4''-Methoxybenzoyl)-thymidine (10)], for which, at Thymidine phosphorylase [1], the half-inhibitory concentration (IC50) stood at 18.8 µM. Further, affinity at Thymidine phosphorylase [2] was put at a Ki of 12.8 µM. The corresponding values for `Cc1ccc(C(=O)OC[C@H]2O[C@@H](n3cc(C)c(=O)[nH]c3=O)C[C@@H]2O)cc1` [5'-O-(4''-Methylbenzoyl)-thymidine (4)] are 18.5 µM and 12.5 µM.
